Data on 4 substances can be found in US8372967B2, “Compounds and methods for modulating expression of GCCR” (Isis Pharmaceuticals, Inc., priority 2006, dated 2013).

The subject of one data set is ApoB mRNA. The experiment in a line: ApoB mRNA in liver and estimated ED50, compounds comprising palmitic acid conjugates (Table 95). The following applies: ApoB mRNA in liver, Balb/c mice, relative to saline. The data set is classed as in vivo, mouse. On the procedure:
0.4, and 0.16 umol/kg. Each dose group consisted of four animals. A 5-10-5 MOE gapmer was used for a control treatment. Mice were sacrificed approximately 48 hours following the final dose. Liver tissue was collected for RNA isolation, and blood was collected for serum chemistry analyses. ApoB mRNA levels were measured by real-time PCR as described herein. ApoB mRNA levels were normalized to RNA levels as determined by RIBOGREEN, and are presented in Table 95 as percent inhibition relative to ApoB mRNA levels in saline-treated control animals.
At the 2.5 umol/kg dose, ApoB inhibition by the short antisense compounds was greater than observed with a 5-10-5 MOE gapmer at an equivalent dose. […] Triglycerides were reduced at the 2.5 and […] doses of ISIS 387462 and ISIS 391872.

The subject of the next data set is GCGR mRNA. As to the kind of experiment: Antisense inhibition of GCGR in HepG2 cells (Table 79). The data set is classed as cell-based, human. As to conditions: HepG2, 25, 50, 100 or 200 nM. Here is the method:
Short antisense compounds targeted to a GCGR nucleic acid were tested for their effects on GCGR mRNA in vitro.
Cultured HepG2 cells at a density of 10000 cells per well in a 96-well plate were treated as described herein with 25, 50, 100 or 200 nM of antisense oligonucleotide. After the treatment period, RNA was isolated from the cells and GCGR mRNA levels were measured by quantitative real-time PCR, as described herein. GCGR mRNA levels were adjusted according to total RNA content as measured by RIBOGREEN®. Results are presented as percent reduction in GCGR mRNA, relative to untreated control cells.

In data set [1] the test system is mouse SGLT2 mRNA. The experiment in a line: Mouse SGLT2 mRNA in kidney, 1-10-1 MOE gapmers, Balb/c mice (Table 65). It is filed as in vivo. Here is the method: The short antisense compounds were analyzed for their effect on mouse SGLT2 mRNA levels. Data was taken from three experiments in which Male 6-week old Balb/c mice were dosed twice per week for two weeks with 450, 150, or 50 nmol/kg of one of the above 1-10-1 MOE gapmers given by intraperitoneal injection. Mice were sacrificed 48 hours following last administration and evaluated for SGLT2 mRNA levels in kidney. Target levels were determined by RT, real-time PCR as described by other examples herein. PCR results were normalized to an internal ISIS control.

The test system of data set [2] is rat SGLT2 mRNA. The experiment in a line: Rat SGLT2 mRNA in kidney, 1-10-1 gapmers, 250 nmol/kg (Table 66). The data set is classed as in vivo. As to conditions: 250 nmol/kg i.p. twice per week for three weeks, Sprague-Dawley rat kidney. On the procedure:
The effect of the above 1-10-1 gapmers (see Table 64 above) on rat SGLT2 mRNA levels. Data are taken from four experiments in which male Sprague-Dawley rats (170-200 g) were dosed twice per week for three weeks with 250 nmol/kg given by intraperitoneal injection. Rats were sacrificed 48 hours following last administration and evaluated for SGLT2 mRNA levels in kidney. Target levels were determined by RT, real-time PCR as described by other examples herein. PCR results were normalized to an internal ISIS control.

Data set [3] has as its system rat SGLT2 mRNA. The experiment in a line: Rat SGLT2 mRNA in kidney, 1-10-1 and 2-8-2 MOE gapmer (Table 70). It is filed as in vivo. As to conditions: Sprague-Dawley rat kidney. On the procedure: The effect of ISIS 3796921-10-1 MOE gapmer and ISIS 388625 MOE 2-8-2 gapmer (see Table 70) on rat SGLT2 mRNA levels in vivo. […] Rats were sacrificed 48 hours following last administration and evaluated for SGLT2 levels in kidney. Target levels were determined by RT, real-time PCR as described by other examples herein. PCR results were normalized to an internal ISIS control.

Data set [4] relates to rat SGLT2 mRNA. As to the kind of experiment: Rat SGLT2 mRNA in kidney, 1-10-1 and 1-10-2 MOE gapmers, Sprague-Dawley rats (Table 63). The data set is classed as in vivo. An excerpt: 1-10-1 and 1-10-2 MOE gapmer antisense compounds, provided in Table 62, were designed to target different regions of the mouse or rat SGLT2 RNA. All short antisense compounds in Table 62 are chimeric oligonucleotides (“gapmers”) either 12 or 13 nucleotides in length, composed of a central “gap” segment consisting of ten 2′-deoxynucleotides, which are flanked on the 5′ side by a one-nucleoside “wing” and on the 3′ side by a two or one-nucleotide “wing”. […] All cytidine residues are 5-methylcytidines.
The short antisense compounds were analyzed for their effect on rat SGLT2 mRNA levels. Data are ranges taken from three experiments in which Male Sprague-Dawley rats (170-200 g) were dosed twice per week for three weeks with 450, 150 or 50 nmol/kg of either a 1-10-1 or 1-10-2 MOE gapmer given by intraperitoneal injection. Rats were sacrificed 48 hours following last administration and evaluated for SGLT2 mRNA levels in kidney. Target levels were determined by RT, real-time PCR as described by other examples herein. PCR results were normalized to an internal ISIS control.

Data set [5] has as its system mouse SGLT2 mRNA. The experiment in a line: Mouse SGLT2 mRNA in kidney, MOE versus Methyleneoxy BNA gapmers (Table 69). It is filed as in vivo. As to conditions: Balb/c mouse kidney. On the procedure:
The effect of ISIS 3796921-10-1 MOE gapmer and ISIS 3886252-8-2 MOE gapmer are compared with the effect of ISIS 3921701-10-1 Methyleneoxy BNA Gapmer and ISIS 3921732-8-2 Methyleneoxy BNA Gapmer (see Table 69) on mouse SGLT2 mRNA levels in vivo. Data are taken from three experiments in which male 6-week old Balb/c mice were dosed twice per week for three weeks with 5, 25 and 125 nmol/kg of either the ISIS 3796921-10-1 MOE gapmer or the ISIS 3886252-8-2 MOE gapmer given by intraperitoneal injection. Mice were sacrificed 48 hours following last administration and evaluated for SGLT2 mRNA levels in kidney. Target levels were determined by RT, real-time PCR as described by other examples herein. PCR results were normalized to an internal ISIS control. The data are expressed as percent change (“+” indicates an increase, “−” indicates a decrease) relative to saline treated animals and are illustrated in Table 69.

Data set [6] has as its system mouse SGLT2 mRNA. As to the kind of experiment: Mouse SGLT2 mRNA in kidney, additional 1-10-1 and 2-8-2 MOE gapmers (Table 68). The data set is classed as in vivo. As to conditions: Balb/c mouse kidney. On the procedure: 1-10-1 and 2-8-2 MOE gapmer short antisense compounds were designed to target different regions of the mouse SGLT2 RNA but have complementarity across species. […] All cytidine residues are 5-methylcytidines.
The short antisense compounds were analyzed for their effect on mouse SGLT2 mRNA levels in vivo. Data was taken from three experiments in which male 6-week old Balb/c mice were dosed twice per week for three weeks with 0.5, 0.1, or 0.02 umol/kg of either a 1-10-1 or 2-8-2 MOE gapmer given by intraperitoneal injection. Mice were sacrificed 48 hours following last administration and evaluated for SGLT2 levels in kidney. Target levels were determined by RT, real-time PCR as described by other examples herein. PCR results were normalized to an internal ISIS control.

Data set [7] can be described thus: HbA1c status in ZDF rat (Table 72). It is filed as in vivo. As to conditions: ZDF rats, 400 nM/kg i.p. once a week for twelve weeks; compared to PBS and control. Here is the method:
(§1) ISIS 388625, 388626 and control oligo ISIS 388628 were analyzed for their effect on ZDF rat plasma glucose levels and HbA1c. The leptin receptor deficient Zucker diabetic fatty (ZDF) rat is a useful model for the investigation of type 2 diabetes. Diabetes develops spontaneously in these male rats at ages 8-10 weeks, and is associated with hyperphagia, polyuria, polydipsia, and impaired weight gain, symptoms which parallel the clinical symptoms of diabetes (Phillips M S, et al., 1996, Nat Genet. 13, 18-19). Six week old ZDF rats were injected intraperitoneally with short antisense compound at a dose of 400 nM/kg once a week for twelve weeks. Data are illustrated in Tables 71 and 72.

Data set [8] is described as follows: Plasma glucose in ZDF rat (Table 71). The following applies: ZDF rats, 400 nM/kg i.p. once a week for twelve weeks; compared to PBS and control. The data set is classed as in vivo. On the procedure:
as §1

Where [9] appears, read: 0.02 umol/kg i.p. twice per week for three weeks.
The mark [10] stands for this setting: 0.1 umol/kg i.p. twice per week for three weeks.
Where [11] appears, read: 0.5 umol/kg i.p. twice per week for three weeks.

Strand notation (5' to 3'): a small letter for the sugar, then the base; units joined by * are phosphorothioate-linked, units joined directly phosphodiester-linked; [ ] holds rarer units or linkages, { } end groups; capitals alone tell only the bases. [PAM-N] = nucleoside carrying a 2'-(butylacetamido)-palmitamide group (palmitic acid C16 conjugate) (N: the base); e = 2'-O-(2-methoxyethyl) (MOE); l = locked nucleic acid (LNA); [5mC] = 5-methylcytosine; d = 2'-deoxy (DNA)

For “391872 ([PAM-G]*lG*dT*dA*dC*dA*dT*dG*dG*dA*dA*dG*lT*l[5mC]) [compound 391872]”, the “% Inhib” value is listed as 18% with ApoB mRNA (single i.p. injection 0.16 umol/kg), 50% in the data set on ApoB mRNA (single i.p. injection 0.4 umol/kg) and 92% in the data set on ApoB mRNA (single i.p. injection 1.0 umol/kg).
With “ISIS 327161: 3-10-3 MOE gapmer targeted to GCGR (eA*eG*e[5mC]*dT*dG*d[5mC]*dT*dG*dT*dA*d[5mC]*eA*eT*e[5mC])”, in the data set with GCGR mRNA, the “GCGR mRNA” value is listed as “reduced GCGR mRNA in a dose-dependent manner”.
Take “ISIS 379692: 1-10-1 MOE gapmer, SGLT2 (eT*dG*dT*dT*d[5mC]*d[5mC]*dA*dG*d[5mC]*d[5mC]*d[5mC]*eA)”: the “% change in SGLT2 expression relative to saline” value with mouse SGLT2 mRNA [1] (50 nmol/kg i.p. twice per week for two weeks) is −52.5%; in the data set on mouse SGLT2 mRNA [1] (150 nmol/kg i.p. twice per week for two weeks) it was −70%; with mouse SGLT2 mRNA [1] (450 nmol/kg i.p. twice per week for two weeks), −80%; with rat SGLT2 mRNA [2], −85%; with rat SGLT2 mRNA [3] (dose 3.125 umol/kg [sic] i.p. twice per week for three weeks), “+30%”; with rat SGLT2 mRNA [3] (dose 12.5 umol/kg [sic] i.p. twice per week for three weeks) it was −15%. Besides, the “% change in SGLT2 expression relative to saline” value is −65% in the data set on rat SGLT2 mRNA [3] (dose 50 umol/kg [sic] i.p. twice per week for three weeks); −80% in the data set with rat SGLT2 mRNA [3] (dose 200 umol/kg [sic] i.p. twice per week for three weeks); −80% in the data set on rat SGLT2 mRNA [4] (50 nmol/kg i.p. twice per week for three weeks); −85% with rat SGLT2 mRNA [4] (150 nmol/kg i.p. twice per week for three weeks); −90% in the data set on rat SGLT2 mRNA [4] (450 nmol/kg i.p. twice per week for three weeks); −55% with mouse SGLT2 mRNA [6] (setting [9]). Further, the “% change in SGLT2 expression relative to saline” value in the data set with mouse SGLT2 mRNA [6] (setting [10]) is −75%; with mouse SGLT2 mRNA [6] (setting [11]), −85%. Moreover, the “SGLT2 mRNA, percent change relative to saline treated animals” value in the data set with mouse SGLT2 mRNA [5] (5 nmol/kg i.p. twice per week for three weeks) is −7%; in the data set on mouse SGLT2 mRNA [5] (25 nmol/kg i.p. twice per week for three weeks) it was −46%; in the data set on mouse SGLT2 mRNA [5] (125 nmol/kg i.p. twice per week for three weeks), −58%.
On to “ISIS 388626: GGCATGAGCTTC 2-8-2 MOE, SGLT2 (eG*eG*d[5mC]*dA*dT*dG*dA*dG*d[5mC]*dT*eT*e[5mC])”, for which the HbA1C result in data set [7] was “significantly reduced”. Moreover, the Plasma glucose levels result in data set [8] is on record as “significantly reduced”. Moreover, the “% change in SGLT2 expression relative to saline” value with mouse SGLT2 mRNA [6] (setting [9]) was −45%; in the data set on mouse SGLT2 mRNA [6] (setting [10]), −60%; in the data set with mouse SGLT2 mRNA [6] (setting [11]), −80%.
